Test results taken from US20170066801A1, “ALPHA3BETA HYDROGEN BOND SURROGATE MACROCYCLES AS MODULATORS OF RAS” (NEW YORK UNIVERSITY, priority 2014, published 2017).
“Also recorded” adds a separate entry of the source. Where two headings read alike, the source gives them in different places. Non-standard residues stand in square brackets, D forms with d. Residues, ends and D or L forms follow the SMILES beside them. β3hI = CC[C@H](C)[C@H](N)CC(=O)O; β3hE = N[C@@H](CCC(=O)O)CC(=O)O; β3hA = C[C@H](N)CC(=O)O

Experiments:
HRas^(1-166) = target: T1, HRas^(1-166) (Homo sapiens, UniProt P01112); test: In vitro pulldown binding assay with 6×His-tagged HRas 1-166 and fluorescein-tagged SOS peptides
T1 construct: 6×His-tagged HRas WT 1-166; made in house
Protocol: Recombinantly purified 6×His-tagged HRas WT 1-166 was incubated with Ni-NTA sepharose beads, generating recombinant Ras on solid support. FITC labeled HBS peptides were incubated in the presence of recombinant HRas-6×His/Ni-NTA Sepharose complex at 4° C. for 1 hour. Beads complexes were pelleted and washed 5× with protein buffer (20 mM Tris-HCl pH 7.6, 50 mM NaCl, 4 mM EDTA, 10 mM MgCl2), resuspended in reducing buffer (126 mM Tris-HCL pH 6.8, 20% glycerol, 4% SDS, 0.02% bromophenol blue, 2.5% β-mercaptoethanol), boiled for 10 minutes at 95° C., and subjected to SDS-PAGE with an acrylamide percentage of 20% to allow for sufficient resolution of the HBS helices. SDS-PAGE gels were imaged using an ImageQuant™ LAS 4000 biomolecular imager (GE Healthcare, Piscataway, N.J., USA). Quantification of fluorescence by FITC-HBS helices in gel was determined by manufacturer provided ImageQuant™ TL software. Raw values were normalized to total input and plotted on a semilog graph with GraphPad Prism version 6.00 for OSX (GraphPad Software, La Jolla Calif. USA, www.graphpad.com).
The binding affinity of the designed compounds for Ras was determined using in vitro pulldown assays with recombinantly purified 6×His-tagged HRas^(1-166) and fluorescein-tagged SOS peptides (FIGS. 8 and 9, and Table 2). […] Although, the exact binding mode of the peptides and the conformational state of Ras is not known, the enhanced affinity of the α3β-HBSSOS compound likely reflects a combination of both the higher conformational stability of the HBS α3β construct and the exact Ras conformation it can access. […] Because, the SOS analogs can bind nucleotide-free and bound Ras, we hypothesize that the compounds are accessing an intermediate switch conformation.

[1] = target: Sos-mediated Ras nucleotide exchange (Homo sapiens, UniProt P01112); test: In vitro nucleotide exchange (mant-GDP, SOS-Cat); type: biochemical
Protocol: Exchange assays were performed by incubating 1 μM of recombinant wild type Ras protein with 1 μM mant-GDP in exchange buffer (20 mM Tris-HCl pH 7.6, 50 mM NaCl, 4 mM EDTA) for 5 minutes on ice. The mixture was then supplemented with 10 mM MgCl2 and incubated for an additional 6 hours at 4° C. Exchange reaction was initiated by either the addition of 100 μM-unlabeled GDP, (negative control) or the addition of 100 μM-unlabeled GDP in the presence of 1 μM SOS-Cat. The levels of fluorescence anisotropy were measured on a Perkin Elmer fluorescence spectrometer (model LS50B) with an excitation wavelength of 370 nm and emission detection at 430 nm. To test the inhibitory properties of the HBSSOS helices, indicated peptides were added to the mant-loaded Ras at a concentration of 1 uM and allowed to stand for 10 minutes at 4° C. before the addition of SosCat. Dissociation rates (Koff values) were determined by fitting raw data to a first-order exponential decay function using GraphPad Prism version 6.00 for OSX (GraphPad Software, La Jolla Calif. USA, www.graphpad.com). Data was normalized to t=0, converted to a percentage, and plotted as a curve for ease of visualization.
We evaluated inhibition of nucleotide exchange under stringent conditions consisting of 1 μM each of Ras, SOS, and the inhibitor.

oncogenic KRas = target: T2, oncogenic KRas (Homo sapiens, UniProt P01116, G12C); test: RBD-pulldown of GTP-loaded Ras in MIA PaCa-2 cells; type: cell-based; details: 48 hours
T2 construct: levels of GTP-loaded endogenous HRas, KRas, and NRas proteins; endogenous in cells; host or cells: MIA PaCa-2
T2 sequence (P01116 whole entry G12C): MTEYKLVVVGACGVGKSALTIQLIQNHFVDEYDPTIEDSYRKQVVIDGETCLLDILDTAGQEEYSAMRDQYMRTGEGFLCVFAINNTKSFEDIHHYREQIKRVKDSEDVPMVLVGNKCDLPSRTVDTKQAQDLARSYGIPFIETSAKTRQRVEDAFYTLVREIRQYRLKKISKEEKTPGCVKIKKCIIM
Protocol: (§1) To determine the effect of α3β-HBSSOS on Sos-mediated Ras activation in cells we treated MIA PaCa-2 cells, which harbor oncogenic KRas, with α3β-HBSSOS, control peptides, or vehicle control for 48 hours. Utilizing the RBD-pulldown assay we determined the levels of GTP-loaded endogenous HRas, KRas, and NRas proteins. As expected, MIA PaCa-2 cells display GTP-loading of all isoforms at steady state when treated with the vehicle control (FIGS. 11A-B).

wild type HRas = target: T3, wild type HRas (Homo sapiens, UniProt P01112); test: RBD-pulldown of GTP-loaded Ras in MIA PaCa-2 cells; type: cell-based; details: 48 hours
T3 construct: levels of GTP-loaded endogenous HRas, KRas, and NRas proteins; endogenous in cells; host or cells: MIA PaCa-2
Protocol: as §1

wild type NRas = target: T4, wild type NRas (Homo sapiens, UniProt P01111); test: RBD-pulldown of GTP-loaded Ras in MIA PaCa-2 cells; type: cell-based; details: 48 hours
T4 construct: levels of GTP-loaded endogenous HRas, KRas, and NRas proteins; endogenous in cells; host or cells: MIA PaCa-2
T4 sequence (P01111 whole entry): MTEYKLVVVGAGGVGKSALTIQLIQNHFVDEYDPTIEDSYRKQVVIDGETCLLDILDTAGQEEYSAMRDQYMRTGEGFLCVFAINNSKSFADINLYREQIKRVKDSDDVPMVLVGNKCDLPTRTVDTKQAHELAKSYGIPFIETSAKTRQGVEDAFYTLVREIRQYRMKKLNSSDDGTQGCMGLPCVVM
Protocol: as §1

[2] = system: panel of six human cancer cell lines; test: Growth and viability of a panel of six human cancer cell lines; type: cell-based; details: for effect on cell growth relative to vehicle control: single administration of 5 μM, six days
Protocol: (§2) Various indicated cell lines were plated at low density (˜500-1000 cells per well) in a 96-well format. 12 hours post-plating, media was supplemented with either PBS vehicle, or indicated dosage, and cells were allowed to grow for ˜5.5 days. Cells were subsequently fixed for 1 hour with a 3.7% formaldehyde solution in PBS, and stained with Syto-60 nucleic acid stain (MANUFACTURER) in solution (1:2000 Syto-60, 0.5% Triton X-100, 100 ug/mL RNAse-A, in PBS). Syto-60 stained cells were subjected to quantitative imaging in 96-well plates (Odyssey® Imager, LI-COR Biosciences; excitation: 652; emission: 678) with a 3.0 mm z-axis offset to the scan-head to get the cellular nuclei in the optimal focal plane for quantification. Absolute fluorescence intensity was normalized to the vehicle control for each respective cell line at each dose. Normalized values were visualized on a semilog plot, and data was subjected to non-linear sigmoidal dose-response to determine half-maximal effective concentration (EC50) using GraphPad Prism version 6.00 for OSX, (GraphPad Software, La Jolla Calif. USA, www.graphpad.com).
(§3) To investigate the functional consequence of inhibiting Ras activation in the context of oncogenic mutations, we examined the effect of α3β-HBSSOS on the growth and viability of cancer cells of different origins. We selected a panel of six human cancer cell lines derived from the pancreas, colon, and bladder, which harbor a variety of oncogenic proteins including mutant KRas (Table 3).
(§4) α3β-HBSSOS reduces cell viability in a dose dependent manner, with the effect spanning over four orders of magnitude. We divided the cell lines into two groups with respect to EC50 values (Table 3). […] We hypothesized that differential cellular uptake may account for the different potency of the peptides between the oncogenic and wild type RTK-Ras cell lines.

BxPc3 = type: cell-based, human; details: BxPc3, Ras WT; read-out: EC50 for cell viability
Protocol: as §2, §3, §4

CaCo2 = type: cell-based, human; details: CaCo2, Ras WT; read-out: EC50 for cell viability
Protocol: as §2, §3, §4

HCT116 = type: cell-based, human; details: read-out: EC50 for cell viability
Protocol: as §2, §3, §4

J82 = type: cell-based, human; details: read-out: EC50 for cell viability
Protocol: as §2, §3, §4

Mia PaCa2 = type: cell-based, human; details: read-out: EC50 for cell viability
Protocol: as §2, §3, §4

SW780 = type: cell-based, human; details: SW780, Ras WT; read-out: EC50 for cell viability
Protocol: as §2, §3, §4

[3] = system: mutant Ras and wild type Ras cancer cell lines; test: Analysis of DNA content by FACS (cell cycle); type: cell-based
Protocol: DNA content was determined by flow cytometric analysis using TO-PRO®-3 Iodide (Life Technologies Corp., Grand Island, N.Y.) to stain nucleic acids. Cell lines were plated at ˜40-50% confluency in multi-well format and 12-hours post plating were treated with either HBS helices or vehicle control at the indicated dose. After the indicated incubation period the culture media was collected, and the cells were trypsinized, pooled with the media, pelleted in a clinical centrifuge, resuspended in a small volume of PBS, and added dropwise to 100% ice-cold ethanol while vortexing at low speed, resulting in a final concentration of ˜70% ethanol. Cells were fixed in this solution on ice for 24 hours. Subsequently cells were pelleted at 4° C., washed once with a solution of 1% BSA in PBS, and resuspended in a solution of 1% BSA, 0.5% Triton X-100, 1:5000 TO-PRO®-3 Iodide (Life Technologies Corp., Grand Island, N.Y.). Results and Discussion of Examples 1-9
We next sought to gain mechanistic insight into the attenuated growth and viability of cancer cells that is observed upon inhibition of Sos-mediated Ras activation with α3β-HBSSOS. Because of the link between Ras signaling and cell cycle progression, we reasoned that DNA content analysis would elucidate Ras-mediated effects on cell growth. […]

mutant Ras cells = test: Phosphorylated H2AX and cleaved caspace-3 immunofluorescence; type: cell-based; details: only mutant Ras cells
Description: We next sought to gain mechanistic insight into the attenuated growth and viability of cancer cells that is observed upon inhibition of Sos-mediated Ras activation with α3β-HBSSOS. Because of the link between Ras signaling and cell cycle progression, we reasoned that DNA content analysis would elucidate Ras-mediated effects on cell growth. […] This cellular response to pharmacological inhibition of Ras activation by α3β-HBSSOS phenocopies the effects of the post-transcriptional silencing of wild type Ras and Sos in oncogenic Ras-driven cancer. These corroborant genetic and pharmacological cell viability defects support the therapeutic strategy of targeting wild type Ras activation.

## CC[C@H](C)[C@@H](CC(=O)N[C@@H](Cc1ccc(O)cc1)C(=O)N[C@@H](CCCNC(=N)N)C(=O)N[C@@H](CC(C)C)C(=O)N[C@@H](CCC(=O)O)CC(=O)N[C@@H](CC(C)C)C(=O)N[C@@H](CC(C)C)C(=O)N[C@@H](CCCCN)C(=O)N[C@@H](C)CC(=O)N[C@@H](CCC(=O)O)C(=O)N[C@@H](CCC(=O)O)C(=O)N[C@@H](C)C(=O)N[C@@H](CC(N)=O)C(N)=O)NC(=O)CN1CC=CCCCC(=O)N[C@@H](Cc2ccccc2)C(=O)N[C@@H](CCC(=O)O)C1=O [α3β-HBSSOS, ZFEG*iYRLeLLKaEEAN-NH2]
HRas^(1-166)
  fold greater affinity than the all-α analog α-HBSSOS: 50 fold
HRas^(1-166); fluorescein-tagged peptides, 4° C., 1 hour
  Kd: 220 ± 56 nM
[1]; 1 μM each of Ras, SOS, and the inhibitor
  inhibition of Sos-mediated Ras nucleotide exchange: potent inhibitory effect
[1]; relative to α-HBSSOS concentration
  concentration giving inhibitory effect comparable to previously reported α-HBSSOS: one-twentieth
Oncogenic KRas
  GTP-loading of oncogenic KRas: diminished; also recorded: significantly reduced
Wild type HRas
  GTP-loading of wild type HRas: completely abrogated
Wild type NRas
  GTP-loading of wild type NRas: completely abrogated
[2]; CaCo2, SW780, and BxPc3
  effect on viability of the wild-type Ras group: limited effects on viability
[2]
  effect on cell growth relative to vehicle control: inhibited the growth of all cell lines to varying degrees
BxPc3
  EC50: 1180 nM
CaCo2
  EC50: 2670 nM
HCT116; HCT116, Kras G13C
  EC50: 243 nM
HCT116; HCT-116
  EC50: 243 ± 44 nM
J82; J82, Ras WT, FGFR3 CA
  EC50: 65.2 nM
J82; J82
  EC50: 65.2 ± 43 nM
Mia PaCa2; MIA PaCa-2
  EC50: 144 ± 57 nM
Mia PaCa2; Mia PaCa2, Kras G12D
  EC50: 144 nM
SW780
  EC50: 1450 nM
[3]; mutant Ras cells (MIA PaCa-2, HCT-116, Umuc3, T24), 48 hours
  cells with 4N DNA content: accumulation
[3]; wild type Ras cell lines (SW780, BxPc3, J82)
  accumulation in the G2/M phase of the cell cycle: do not accumulate
Mutant Ras cells
  DNA strand breaks and apoptosis: increased levels

## CC[C@H](C)[C@@H](CC(=O)N[C@@H](Cc1ccc(O)cc1)C(=O)N[C@@H](CCCNC(=N)N)C(=O)N[C@@H](CC(C)C)C(=O)N[C@@H](CCC(=O)O)CC(=O)N[C@@H](CC(C)C)C(=O)N[C@@H](CC(C)C)C(=O)N[C@@H](CCCCN)C(=O)N[C@@H](C)CC(=O)N[C@@H](CCC(=O)O)C(=O)N[C@@H](CCC(=O)O)C(=O)N[C@@H](C)C(=O)N[C@@H](CC(N)=O)C(N)=O)NC(=O)CNC(=O)[C@H](CCC(=O)O)NC(=O)[C@H](Cc1ccccc1)NC(C)=O [α3β-UNCSOS, Ac-FEGiYRLeLLKaEEAN-NH2] (Ac-FEG[β3hI]YRL[β3hE]LLK[β3hA]EEAN-NH2)
HRas^(1-166)
  fold weaker affinity than constrained counterpart α3β-HBSSOS: ~136 fold
Wild type HRas
  GTP-loading of wild type HRas: not
Wild type NRas
  GTP-loading of wild type NRas: not
[2]
  effect on cell growth relative to vehicle control: no effect on cell growth
